IC50 data for 22 compounds are collected here from patent US11352340B2, “Pyridine and pyridimine compounds as PI3K-gamma inhibitors” (Incyte Corporation, priority 2016, dated 2022).

Structures can show the parent of a compound that is named as a salt.

For assay [1], the target named is PI3Kδ (p110δ/p85α) Recombinant Human Protein (Homo sapiens (Human), UniProt O00329). The assay is described as follows: PI3Kδ Scintillation Proximity Assay. In kind it is biochemical. Conditions: read-out: PI3K-delta SPA IC50. In outline:
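IC50 was fitted to percent solvent-control activity from SPA scintillation counts after WGA bead capture of 33P-labelled lipid product. Reaction: 120 min, room temperature, 3.4 nM p110δ/p85α, 20 μM PIP2, 2 μM ATP with tracer, MOPS pH 6.7 buffer containing MgCl2, DTT, CHAPS, 2% DMSO.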
On the technique in general: Scintillation proximity formats need no separation of bound from free tracer.

Assay [2] concerns the target PI3Kγ (p110γ) Recombinant Human Protein (Homo sapiens (Human), UniProt P48736). Kind of assay: PI3K-γ Scintillation Proximity Assay. Type of assay: biochemical. Conditions: read-out: PI3K-gamma SPA IC50. In outline: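 Radiometric SPA: reaction at room temperature for 120 min using 2 μM ATP with [γ-33P]ATP tracer, 20 μM PIP2 substrate and 13 nM human PI3Kγ (MOPS pH 6.7, MgCl2, DTT, CHAPS; 2% DMSO). EDTA quench with WGA beads, scintillation count, and IC50 fit of percent-of-control activity.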

Chain of PI3Kγ (p110γ) Recombinant Human Protein (P48736 whole entry): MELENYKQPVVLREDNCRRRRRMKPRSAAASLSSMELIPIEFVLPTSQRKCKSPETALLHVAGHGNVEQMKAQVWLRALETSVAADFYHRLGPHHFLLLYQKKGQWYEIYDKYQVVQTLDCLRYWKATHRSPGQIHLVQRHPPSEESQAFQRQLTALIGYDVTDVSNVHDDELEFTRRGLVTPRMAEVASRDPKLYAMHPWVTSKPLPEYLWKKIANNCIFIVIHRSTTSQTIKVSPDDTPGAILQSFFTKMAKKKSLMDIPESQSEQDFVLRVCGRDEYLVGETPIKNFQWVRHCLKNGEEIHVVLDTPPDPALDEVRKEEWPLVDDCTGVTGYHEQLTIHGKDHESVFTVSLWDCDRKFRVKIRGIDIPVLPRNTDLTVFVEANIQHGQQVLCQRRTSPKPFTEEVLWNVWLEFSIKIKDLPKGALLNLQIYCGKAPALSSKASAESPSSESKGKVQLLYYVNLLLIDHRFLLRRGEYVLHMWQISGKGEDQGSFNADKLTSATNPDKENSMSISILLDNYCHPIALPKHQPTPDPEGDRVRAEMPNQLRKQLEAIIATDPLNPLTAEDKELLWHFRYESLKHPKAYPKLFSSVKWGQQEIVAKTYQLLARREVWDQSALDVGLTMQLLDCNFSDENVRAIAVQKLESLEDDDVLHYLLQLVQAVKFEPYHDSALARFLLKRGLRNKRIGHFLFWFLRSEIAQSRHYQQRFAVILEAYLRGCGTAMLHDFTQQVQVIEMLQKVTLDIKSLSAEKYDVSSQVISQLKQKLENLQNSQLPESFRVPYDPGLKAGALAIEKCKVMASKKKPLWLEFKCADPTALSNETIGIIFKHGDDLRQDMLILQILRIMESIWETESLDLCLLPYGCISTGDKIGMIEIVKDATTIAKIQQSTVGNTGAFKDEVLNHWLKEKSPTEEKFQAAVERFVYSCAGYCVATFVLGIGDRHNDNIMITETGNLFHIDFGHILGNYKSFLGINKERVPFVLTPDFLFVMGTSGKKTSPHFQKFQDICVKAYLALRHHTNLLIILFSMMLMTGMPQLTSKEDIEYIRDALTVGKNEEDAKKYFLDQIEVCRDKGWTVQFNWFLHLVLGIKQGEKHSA
Chain of PI3Kδ (p110δ/p85α) Recombinant Human Protein (O00329 whole entry): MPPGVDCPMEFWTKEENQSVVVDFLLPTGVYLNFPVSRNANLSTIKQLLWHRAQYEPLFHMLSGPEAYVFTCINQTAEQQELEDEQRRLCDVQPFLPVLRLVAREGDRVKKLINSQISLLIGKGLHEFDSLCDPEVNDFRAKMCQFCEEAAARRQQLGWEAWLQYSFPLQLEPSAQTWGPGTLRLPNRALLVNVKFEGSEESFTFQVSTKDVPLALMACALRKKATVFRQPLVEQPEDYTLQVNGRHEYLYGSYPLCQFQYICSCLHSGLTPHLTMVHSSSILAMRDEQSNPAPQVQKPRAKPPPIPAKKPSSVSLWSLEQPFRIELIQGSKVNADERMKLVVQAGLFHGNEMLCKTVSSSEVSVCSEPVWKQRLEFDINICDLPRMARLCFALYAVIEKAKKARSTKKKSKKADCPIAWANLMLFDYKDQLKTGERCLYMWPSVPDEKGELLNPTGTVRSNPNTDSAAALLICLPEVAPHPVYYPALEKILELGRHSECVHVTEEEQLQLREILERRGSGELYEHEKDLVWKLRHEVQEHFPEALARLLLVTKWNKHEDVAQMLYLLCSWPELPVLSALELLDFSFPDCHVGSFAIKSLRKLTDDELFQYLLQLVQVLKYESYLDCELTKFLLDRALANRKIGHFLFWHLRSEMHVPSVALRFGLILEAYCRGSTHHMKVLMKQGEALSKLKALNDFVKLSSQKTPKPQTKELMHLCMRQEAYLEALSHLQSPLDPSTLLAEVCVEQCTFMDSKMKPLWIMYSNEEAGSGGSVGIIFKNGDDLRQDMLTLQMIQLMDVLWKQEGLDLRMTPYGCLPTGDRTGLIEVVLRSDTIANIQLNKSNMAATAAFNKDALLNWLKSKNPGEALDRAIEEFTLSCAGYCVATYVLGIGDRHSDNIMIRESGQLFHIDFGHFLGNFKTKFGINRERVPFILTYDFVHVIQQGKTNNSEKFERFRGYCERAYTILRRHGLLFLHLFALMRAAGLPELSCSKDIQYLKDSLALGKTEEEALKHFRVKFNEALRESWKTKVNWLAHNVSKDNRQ
Chain of PI3Kδ (p110δ/p85α) Recombinant Human Protein (P27986 whole entry partner): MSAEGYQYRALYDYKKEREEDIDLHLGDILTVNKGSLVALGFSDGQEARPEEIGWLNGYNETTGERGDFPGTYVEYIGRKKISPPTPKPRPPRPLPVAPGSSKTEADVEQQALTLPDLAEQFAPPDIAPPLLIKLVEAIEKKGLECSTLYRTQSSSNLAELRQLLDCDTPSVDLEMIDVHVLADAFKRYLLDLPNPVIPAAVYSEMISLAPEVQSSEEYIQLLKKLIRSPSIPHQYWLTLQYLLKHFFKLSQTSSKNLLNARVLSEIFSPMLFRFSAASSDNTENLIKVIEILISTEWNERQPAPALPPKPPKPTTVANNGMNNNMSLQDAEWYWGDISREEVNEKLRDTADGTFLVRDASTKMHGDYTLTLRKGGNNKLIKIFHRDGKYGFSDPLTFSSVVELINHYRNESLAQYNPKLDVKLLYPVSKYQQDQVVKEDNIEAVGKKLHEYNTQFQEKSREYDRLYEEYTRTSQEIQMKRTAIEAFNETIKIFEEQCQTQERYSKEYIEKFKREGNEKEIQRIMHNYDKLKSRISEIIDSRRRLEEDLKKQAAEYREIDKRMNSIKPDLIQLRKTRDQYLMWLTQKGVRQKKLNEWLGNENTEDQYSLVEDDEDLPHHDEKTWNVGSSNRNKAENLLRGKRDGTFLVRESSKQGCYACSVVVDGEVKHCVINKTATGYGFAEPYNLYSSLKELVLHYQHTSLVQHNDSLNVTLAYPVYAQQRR

As for `CC(=O)N1CC=C(c2ccnc(-c3nc(C)c(C)[nH]3)c2)C1` [Example 226, 1-(3-(2-(4,5-Dimethyl-1H-imidazol-2-yl)pyridin-4-yl)-2,5-dihydro-1H-pyrrol-1-yl)ethanone trifluoroacetate salt], the IC50 in assay [1] and in assay [2] was more than 0.5 µM in each case.
For the compound `COC(=O)c1ccc(Cn2cc(-c3ccnc(-c4ncc(-c5ccccc5)[nH]4)c3)cn2)cc1` [Example 32, Methyl 4-((4-(2-(5-phenyl-1H-imidazol-2-yl)pyridin-4-yl)-1H-pyrazol-1-yl)methyl)benzoate trifluoroacetate salt], the IC50 was more than 0.5 µM in assay [1] and not above 0.5 µM in assay [2].
Take `Cc1[nH]c(-c2cc(-c3cncc(N4CCOCC4)c3)ccn2)nc1Nc1ccnnc1` [Example 308, N-[5-Methyl-2-(5-morpholin-4-yl-3,4′-bipyridin-2′-yl)-1H-imidazol-4-yl]pyridazin-4-amine trifluoroacetate salt]: the results for the IC50 in assay [1] and in assay [2] were not above 0.05 µM and not above 0.5 µM, respectively.
In the case of `COC(=O)c1ccccc1Cn1cc(-c2ccnc(-c3ncc(-c4ccccc4)[nH]3)c2)cn1` [Example 30, Methyl 2-((4-(2-(5-phenyl-1H-imidazol-2-yl)pyridin-4-yl)-1H-pyrazol-1-yl)methyl)benzoate trifluoroacetate salt], the IC50 in assay [1] and in assay [2] was more than 0.5 µM each time.
For the compound `Cn1ccnc1-c1ccnc(-c2ncc(-c3ccccc3)[nH]2)c1` [Example 16, 4-(1-Methyl-1H-imidazol-2-yl)-2-(5-phenyl-1H-imidazol-2-yl)pyridine trifluoroacetate salt], the IC50 in assay [1] and in assay [2] was more than 0.5 µM each time.
As to `Cc1nc(-c2cc(C3=CCN(Cc4ccc(Cl)cc4)C3)ccn2)[nH]c1C` [Example 229, 4-(1-(4-Chlorobenzyl)-2,5-dihydro-1H-pyrrol-3-yl)-2-(4,5-dimethyl-1H-imidazol-2-yl)pyridine trifluoroacetate salt], the IC50 in assay [1] and in assay [2] was more than 0.5 µM each time.
`Cc1nc(-c2cc(C3=CCCN(Cc4ccccc4)C3)ccn2)[nH]c1C` [Example 223, 4-(1-Benzyl-1,2,5,6-tetrahydropyridin-3-yl)-2-(4,5-dimethyl-1H-imidazol-2-yl)pyridine trifluoroacetate salt]: the IC50 in assay [1] and in assay [2] was more than 0.5 µM each time.
As for `Cc1nc(-c2cc(-c3cncc(NCC4CCOCC4)c3)ccn2)[nH]c1C` [Example 145, 2′-(4,5-Dimethyl-1H-imidazol-2-yl)-N-(tetrahydro-2H-pyran-4-ylmethyl)-3,4′-bipyridin-5-amine], the IC50 was not above 0.5 µM in assay [1] and not above 0.05 µM in assay [2].
For `O=S(=O)(c1ccccc1)N1CCC(c2c[nH]c(-c3cc(-c4cnn(Cc5ccc(Cl)cc5)c4)ccn3)n2)C1` (centres unmarked) [Example 305, 4-[1-(4-Chlorobenzyl)-1H-pyrazol-4-yl]-2-{4-[1-(phenylsulfonyl)pyrrolidin-3-yl]-1H-imidazol-2-yl}pyridine trifluoroacetate salt], the IC50 in assay [1] and in assay [2] was not above 0.5 µM each time.
With `CC(C)c1cnc(-c2cc(-c3cncc(N4CCOCC4)c3)ccn2)[nH]1` [Example 101, 4-(2′-(5-Isopropyl-1H-imidazol-2-yl)-3,4′-bipyridin-5-yl)morpholine trifluoroacetate salt], the IC50 in assay [1] and in assay [2] was not above 0.5 µM throughout.
As to `CN1CCC(CNc2cncc(-c3ccnc(-c4ncc(-c5ccccc5)[nH]4)c3)c2)CC1` [Example 144, N-((1-Methylpiperidin-4-yl)methyl)-2′-(5-phenyl-1H-imidazol-2-yl)-3,4′-bipyridin-5-amine trifluoroacetate salt], the IC50 in assay [1] and in assay [2] was not above 0.1 µM each time.
Take `CC(=O)N1CCC(c2c[nH]c(-c3cc(-c4cnn(Cc5ccc(Cl)cc5)c4)ccn3)n2)C1` (stereo not drawn) [Example 303, 2-[4-(1-Acetylpyrrolidin-3-yl)-1H-imidazol-2-yl]-4-[l-(4-chlorobenzyl)-1H-pyrazol-4-yl]pyridine trifluoroacetate salt]: the results for the IC50 in assay [1] and in assay [2] were more than 0.5 µM and not above 0.5 µM, respectively.
The corresponding values for `Cc1nc(-c2cc(-c3cncc(C(=O)N4CCC(c5ccncc5)C4)c3)ccn2)[nH]c1C` (racemic) [Example 182, 2′-(4,5-Dimethyl-1H-imidazol-2-yl)-5-[(3-pyridin-4-ylpyrrolidin-1-yl)carbonyl]-3,4′-bipyridine] are not above 0.5 µM and not above 0.5 µM.
The like results for `CC(C)(C)OC(=O)Nc1cncc(-c2ccnc(-c3ncc(-c4ccccc4)[nH]3)c2)c1` [Example 126, tert-Butyl [2′-(5-phenyl-1H-imidazol-2-yl)-3,4′-bipyridin-5-yl]carbamate] were, in that order, not above 0.5 µM and not above 0.5 µM.
As for `CS(=O)(=O)N1CCC(c2c[nH]c(-c3cc(-c4cnn(Cc5ccc(Cl)cc5)c4)ccn3)n2)C1` (single isomer, unassigned) [Example 304, 4-[1-(4-Chlorobenzyl)-1H-pyrazol-4-yl]-2-{4-[1-(methylsulfonyl)pyrrolidin-3-yl]-1H-imidazol-2-yl}pyridine trifluoroacetate salt], the IC50 in assay [1] was not above 0.5 µM; in assay [2], not above 0.1 µM.
For `COC(=O)c1cccc(Cn2cc(-c3ccnc(-c4ncc(-c5ccccc5)[nH]4)c3)cn2)c1` [Example 31, Methyl 3-((4-(2-(5-phenyl-1H-imidazol-2-yl)pyridin-4-yl)-1H-pyrazol-1-yl)methyl)benzoate trifluoroacetate salt], the figures for the IC50 in assay [1] and in assay [2] were more than 0.5 µM and not above 0.5 µM, respectively.
For `CN1CCC(Nc2cncc(-c3ccnc(-c4ncc(-c5ccccc5)[nH]4)c3)c2)CC1` [Example 143, N-(1-Methylpiperidin-4-yl)-2′-(5-phenyl-1H-imidazol-2-yl)-3,4′-bipyridin-5-amine trifluoroacetate salt], the IC50 in assay [1] and in assay [2] was not above 0.1 µM in each case.
With `Cc1nc(-c2cc(-c3cncc(C(=O)N4CCN(C)CC4)c3)ccn2)[nH]c1C` [Example 147, (2′-(4,5-Dimethyl-1H-imidazol-2-yl)-3,4′-bipyridin-5-yl)(4-methylpiperazin-1-yl)methanone], the IC50 in assay [1] and in assay [2] was not above 0.5 µM in each case.
For `COc1cncc(-c2cc(-c3nc4ccccc4[nH]3)ncn2)c1` [Example 95, trifluoroacetate salt], the IC50 in assay [1] and in assay [2] was more than 0.5 µM throughout.
With `Cc1nc(-c2cc(C3=CCN(S(C)(=O)=O)C3)ccn2)[nH]c1C` [Example 227, 2-(4,5-Dimethyl-1H-imidazol-2-yl)-4-(1-(methylsulfonyl)-2,5-dihydro-1H-pyrrol-3-yl)pyridine trifluoroacetate salt], the IC50 in assay [1] and in assay [2] was more than 0.5 µM in each case.
As to `COC1CN(C(=O)c2nc(-c3cc(-c4cncc(N5CCOCC5)c4)ccn3)[nH]c2C)C1` [Example 263, 2′-{4-[(3-Methoxyazetidin-1-yl)carbonyl]-5-methyl-1H-imidazol-2-yl}-5-morpholin-4-yl-3,4′-bipyridine], the IC50 in assay [1] is not above 0.05 µM; in assay [2] it was not above 0.1 µM.
On to `Cc1[nH]c(-c2cc(-c3cncc(N4CCOCC4)c3)ccn2)nc1C(C)O` (racemic) [Example 124, 1-[5-Methyl-2-(5-morpholin-4-yl-3,4′-bipyridin-2′-yl)-1H-imidazol-4-yl]ethanol], for which the IC50 in assay [1] and in assay [2] was not above 0.5 µM in each case.
